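Compound exposure: 48 hours, 5 concentrations, 96-well plates. GI50 = concentration required for 50% inhibition of growth. TGI: concentration producing complete growth inhibition.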
How the values were obtained:
Test in all cases: growth of human tumour cells (NCI), 48 h
[1] = test system: ACHN renal
[2] = test system: COLO 205 colon
[3] = test system: K-562 leukemia
[4] = test system: MOLT-4 leukemia
[5] = test system: NCI-H226 lung
[6] = test system: NCI-H460 lung
[7] = test system: SK-MEL-2 melanoma
[8] = test system: SK-MEL-28 melanoma

Row | SMILES | TGI [1] | TGI [2] | TGI [3] | TGI [4] | TGI [5] | TGI [6] | TGI [7] | TGI [8] | GI50 [1] | GI50 [2] | GI50 [3] | GI50 [4] | GI50 [5] | GI50 [6] | GI50 [7] | GI50 [8]
1 | Clc1ccc(C=Nc2ccc3c(c2)Cc2ccccc2-3)c(Cl)c1 | > 100 µM | > 100 µM | > 100 µM | > 100 µM | > 100 µM | > 100 µM | > 100 µM | > 100 µM | – | – | – | – | – | – | – | –
2 | CC(=O)N[C@H]1CSSC[C@@H](C(N)=O)NC(=O)[C@H](C(C)C)NC(=O)[C@H](C)NC(=O)[C@H](Cc2cnc[nH]2)NC1=O | > 100 µM | > 100 µM | > 100 µM | > 100 µM | > 100 µM | > 100 µM | > 100 µM | > 100 µM | > 100 µM | > 100 µM | > 100 µM | > 100 µM | > 100 µM | > 100 µM | > 100 µM | > 100 µM
3 | O=C1CC2c3ccccc3CCC2c2ccccc21 (configuration not stated) | > 100 µM | 11.2 µM | > 100 µM | > 100 µM | 52.4 µM | 69.2 µM | 35.9 µM | > 100 µM | – | – | – | – | – | – | – | –
4 | C=C1CCC(CC[C@@H]2CC[C@]3(OC2)O[C@@]2(O)CC[C@]3(C)OC2(C)C)C(C)(C)[C@H]1C/C=C1/C(=O)OC[C@@H]1O (some centres not stated) | 6.89 µM | 16.3 µM | 2.38 µM | 5.45 µM | 6.94 µM | 15.1 µM | 1.36 µM | 3.58 µM | – | – | – | – | – | – | – | –
5 | CCn1c(SCc2ccc(C)cc2)nnc1-c1nn(-c2ccc(Cl)cc2Cl)c(-c2ccc(Cl)cc2)c1C | 10.4 µM | 3.39 µM | 10.4 µM | 11 µM | 13.9 µM | 10.5 µM | 12.5 µM | 15.3 µM | 2.74 µM | 1.51 µM | 0.836 µM | 2.15 µM | 2.26 µM | 1.46 µM | 3.01 µM | 3.11 µM
6 | COc1cc(C(=O)c2cc(C)c3[nH]c4ccc(C)cc4c3c2C)cc(OC)c1OC | > 100 µM | 0.0369 µM | > 100 µM | > 100 µM | > 100 µM | > 100 µM | > 100 µM | > 100 µM | < 0.01 µM | < 0.01 µM | < 0.01 µM | < 0.01 µM | < 0.01 µM | < 0.01 µM | – | 1.64 µM
7 | O=C(O)C1C(Br)(c2ccccc2)C1(Br)c1ccccc1 (configuration not stated) | 57 µM | 37.8 µM | > 100 µM | > 100 µM | > 100 µM | > 100 µM | 80.2 µM | 52.6 µM | – | – | – | – | – | – | – | –
8 | COc1cc2[nH]c(C(=O)c3cc(OC)c(OC)c(OC)c3)c(N)c2cc1C#CC1CC1 | > 100 µM | 8.34 µM | > 100 µM | > 100 µM | > 100 µM | > 100 µM | > 100 µM | > 100 µM | 1.3 µM | 2.4 µM | 1.94 µM | 4.32 µM | 22.4 µM | 3.55 µM | 5.14 µM | 7.52 µM
9 | CN(C)C(=O)[C@H](O)[C@H](Cc1ccccc1)NC(=O)c1cc2cc(Cl)ccc2[nH]1 | 60.8 µM | 30.3 µM | > 100 µM | 79.4 µM | > 88.2 µM | 56.1 µM | 37.2 µM | 54.5 µM | 22.2 µM | 16.1 µM | 25.8 µM | 21 µM | 23 µM | 22 µM | 17.2 µM | 19 µM
10 | ClCC[N+]12CC[N+](CCCl)(CC1)C2 | > 100 µM | > 100 µM | > 100 µM | > 100 µM | > 100 µM | > 100 µM | > 100 µM | > 100 µM | – | – | – | – | – | – | – | –
11 | O=c1c2ccccc2c(=O)c2c1[nH]c1c(-c3ccccc3)c(-c3ccccc3)c(=O)c12 | 3.62 µM | 13.1 µM | > 100 µM | 13.3 µM | 44.5 µM | 12 µM | 15.6 µM | 14.3 µM | 1.93 µM | 3.94 µM | 3.68 µM | 1.92 µM | 3.56 µM | 2.82 µM | 2.84 µM | 3.51 µM
12 | ClCc1cccc(Cn2cnc3nc(Cl)nc(Cl)c32)c1 | 0.837 µM | 4.22 µM | 2.95 µM | 2.7 µM | 3.54 µM | 3.09 µM | 3.74 µM | 1.13 µM | 0.396 µM | 1.69 µM | 1.48 µM | 1.17 µM | 1.04 µM | 1.72 µM | 1.78 µM | 0.503 µM
13 | O=c1cc(NC2CCN(CCCc3ccccc3)CC2)c2cc(Cl)ccc2o1 | 17.6 µM | 23.2 µM | 20.5 µM | 37.9 µM | 39.6 µM | 29.6 µM | 33.1 µM | 23.9 µM | 4.86 µM | 9.98 µM | 3.86 µM | 8.26 µM | 15.6 µM | 15.7 µM | 18.4 µM | 11.1 µM

From PubChem BioAssay (NCI)
